Laboratory results from patent publication US20250154152A1, “INHIBITORS OF NAEGLERIA FOWLERI” (Wisconsin Alumni Research Foundation, priority 2023, published 2025).

Each compound was assayed on N. fowleri strain Nf69 (ATCC 30215) trophozoites (assay: Determination of EC50 values against Naegleria fowleri (growth inhibition, CellTiter Glo, 48 h)). Conditions: ATCC30215, N. fowleri Nf69 trophozoites, 48 h culture, 37° C., CellTiter Glo luminescence, read-out: EC50 uM against N. fowleri.
Assay type: cell-based
Protocol: N. fowleri strain Nf69 (ATCC 30215) trophozoites were cultured axenically. Amoeba were seeded at […] in 100 μL of the indicated medium in white TC-treated 96-well plates (Thermo Scientific Nunc Microwell 136101). Cells were seeded into Nelson's Complete Media (NCM, 0.17% liver infusion broth (BD Difco, Franklin Lakes, NJ), 0.17% glucose, 0.012% sodium chloride, 0.0136% potassium phosphate monobasic, 0.0142% sodium phosphate dibasic, 0.0004% calcium chloride, 0.0002% magnesium sulfate, 10% heat-inactivated fetal bovine serum (FBS), 1% penicillin-streptomycin) at 37° C. in 96-well tissue culture plates. Vehicle or compound at concentrations initially ranging from 20 to 0.375 μM were added to cells, followed by culture for 48 h (37° C., 5% CO2). Plates were equilibrated to rt for 15 min and CellTiter Glo reagent was added followed by orbital shaking for 2 min. After an additional incubation (rt, 10 min), luminescence was scored on a BioTek Synergy H1 microplate reader. Luminescence values were used to calculate percent cell growth inhibition (based on controls) for each concentration of compound tested. Averages of triplicates were calculated and fit to dose-response curves for the determination of EC50 values, using Prism 9.0 (GraphPad Software, San Diego, CA). […] Other controls included media alone, cells and media, and vehicle and media. For very potent compounds, concentration of reagent in the dose-response assays were reduced to provide an appropriate range for EC50 value resolution.
Compounds of the present technology were tested for growth inhibition of N. fowleri per General Procedure 13, above.

SMILES	EC50
CN1CCC[C@@H]2c3nc4ccc(Cl)cc4c(=O)n3CC[C@H]21 (racemic) [trans-5d, (±)-(4aR,13bS)-10-chloro-4-methyl-1,2,3,4,4a,5,6,13b-octahydro-8H-[1,6]naphthyridino[5,6-b]quinazolin-8-one]	0.1 to 1 µM
CN1CCC[C@@H]2c3nc4ccc(Br)cc4c(=O)n3CC[C@H]21 (racemic) [trans-5e, (±)-(4aR,13bS)-10-bromo-4-methyl-1,2,3,4,4a,5,6,13b-octahydro-8H-[1,6]naphthyridino[5,6-b]quinazolin-8-one]	1 to 10 µM
CN1CCC[C@@H]2c3nc4ccc(F)cc4c(=O)n3CC[C@H]21 (racemic) [trans-5f, (±)-(4aR,13bS)-10-fluoro-4-methyl-1,2,3,4,4a,5,6,13b-octahydro-8H-[1,6]naphthyridino[5,6-b]quinazolin-8-one]	> 10 µM
COc1ccc2nc3n(c(=O)c2c1)CC[C@@H]1[C@@H]3CCCN1C (racemic) [trans-5g, (±)-(4aR,13bS)-10-methoxy-4-methyl-1,2,3,4,4a,5,6,13b-octahydro-8H-[1,6]naphthyridino[5,6-b]quinazolin-8-one]	1 to 10 µM
COc1cc2nc3n(c(=O)c2cc1Cl)CC[C@@H]1[C@@H]3CCCN1C (racemic) [trans-5gg, (±)-(4aR,13bS)-10-chloro-11-methoxy-4-methyl-1,2,3,4,4a,5,6,13b-octahydro-8H-[1,6]naphthyridino[5,6-b]quinazolin-8-one]	0.1 to 1 µM
Cc1ccc2nc3n(c(=O)c2c1)CC[C@@H]1[C@@H]3CCCN1C (racemic) [trans-5h, (±)-(4aR,13bS)-4,10-dimethyl-1,2,3,4,4a,5,6,13b-octahydro-8H-[1,6]naphthyridino[5,6-b]quinazolin-8-one]	1 to 10 µM
CN1CCC[C@@H]2c3nc4ccc(C#N)cc4c(=O)n3CC[C@H]21 (racemic) [trans-5i, (±)-(4aR,13bS)-4-methyl-8-oxo-2,3,4,4a,5,6,8,13b-octahydro-1H-[1,6]naphthyridino[5,6-b]quinazoline-10-carbonitrile]	0.1 to 1 µM
CN1CCC[C@@H]2c3nc4ccc(C(F)(F)F)cc4c(=O)n3CC[C@H]21 (racemic) [trans-5j, (±)-(4aR,13bS)-4-methyl-10-(trifluoromethyl)-1,2,3,4,4a,5,6,13b-octahydro-8H-[1,6]naphthyridino[5,6-b]quinazolin-8-one]	1 to 10 µM
CN1CCC[C@@H]2c3nc4cc(Cl)ccc4c(=O)n3CC[C@H]21 (racemic) [trans-5k, (±)-(4aR,13bS)-11-chloro-4-methyl-1,2,3,4,4a,5,6,13b-octahydro-8H-[1,6]naphthyridino[5,6-b]quinazolin-8-one]	1 to 10 µM
CN1CCC[C@@H]2c3nc4cc(Br)ccc4c(=O)n3CC[C@H]21 (racemic) [trans-5l, (±)-(4aR,13bS)-11-bromo-4-methyl-1,2,3,4,4a,5,6,13b-octahydro-8H-[1,6]naphthyridino[5,6-b]quinazolin-8-one]	1 to 10 µM
CN1CCC[C@@H]2c3nc4cc(F)ccc4c(=O)n3CC[C@H]21 (racemic) [trans-5m, (±)-(4aR,13bS)-11-fluoro-4-methyl-1,2,3,4,4a,5,6,13b-octahydro-8H-[1,6]naphthyridino[5,6-b]quinazolin-8-one]	> 10 µM
CN1CCC[C@@H]2c3nc4cc(C(F)(F)F)ccc4c(=O)n3CC[C@H]21 (racemic) [trans-5n, (±)-(4aR,13bS)-4-methyl-11-(trifluoromethyl)-1,2,3,4,4a,5,6,13b-octahydro-8H-[1,6]naphthyridino[5,6-b]quinazolin-8-one]	0.1 to 1 µM
CN1CCC[C@@H]2c3nc4cnccc4c(=O)n3CC[C@H]21 (racemic) [trans-5p, (±)-(4aR,13bS)-4-methyl-1,2,3,4,4a,5,6,13b-octahydro-8H-pyrido[3′,4′:4,5]pyrimido[2,1-f][1,6]naphthyridin-8-one]	> 10 µM
CN1CCC[C@@H]2c3nc4cc(Cl)c(Cl)cc4c(=O)n3CC[C@H]21 (racemic) [trans-5q, (±)-(4aR,13bS)-10,11-dichloro-4-methyl-1,2,3,4,4a,5,6,13b-octahydro-8H-[1,6]naphthyridino[5,6-b]quinazolin-8-one]	0.1 to 1 µM
COc1cc2nc3n(c(=O)c2cc1OC)CC[C@@H]1[C@@H]3CCCN1C (racemic) [trans-5r, (±)-(4aR,13bS)-10,11-dimethoxy-4-methyl-1,2,3,4,4a,5,6,13b-octahydro-8H-[1,6]naphthyridino[5,6-b]quinazolin-8-one]	> 10 µM
CN1CCC[C@@H]2c3nc4cc(Cl)c(C(F)(F)F)cc4c(=O)n3CC[C@H]21 (racemic) [trans-5s, (±)-(4aR,13bS)-11-chloro-4-methyl-10-(trifluoromethyl)-1,2,3,4,4a,5,6,13b-octahydro-8H-[1,6]naphthyridino[5,6-b]quinazolin-8-one]	0.1 to 1 µM
COc1cc(Cl)cc2c(=O)n3c(nc12)[C@H]1CCCN(C)[C@@H]1CC3 (racemic) [trans-5t, (±)-(4aR,13bS)-10-chloro-12-methoxy-4-methyl-1,2,3,4,4a,5,6,13b-octahydro-8H-[1,6]naphthyridino[5,6-b]quinazolin-8-one]	> 10 µM
COc1cccc2c(=O)n3c(nc12)[C@H]1CCCN(C)[C@@H]1CC3 (racemic) [trans-5u, (±)-(4aR,13bS)-12-methoxy-4-methyl-1,2,3,4,4a,5,6,13b-octahydro-8H-[1,6]naphthyridino[5,6-b]quinazolin-8-one]	> 10 µM
CN1CCO[C@@H]2c3nc4ccccc4c(=O)n3CC[C@H]21 (racemic) [trans-5v, (±)-(4aR,13bS)-4-methyl-3,4,4a,5,6,13b-hexahydro-[1,4]oxazino[2′,3′:3,4]pyrido[2,1-b]quinazolin-8(2H)-one]	> 10 µM
CN1CCO[C@@H]2c3nc4ccc(Cl)cc4c(=O)n3CC[C@H]21 (racemic) [trans-5w, (±)-(4aR,13bS)-10-chloro-4-methyl-3,4,4a,5,6,13b-hexahydro-[1,4]oxazino[2′,3′:3,4]pyrido[2,1-b]quinazolin-8(2H)-one]	> 10 µM
CN1CCO[C@@H]2c3nc4ccc(C(F)(F)F)cc4c(=O)n3CC[C@H]21 (racemic) [trans-5x, (±)-(4aR,13bS)-4-methyl-10-(trifluoromethyl)-3,4,4a,5,6,13b-hexahydro-[1,4]oxazino[2′,3′:3,4]pyrido[2,1-b]quinazolin-8(2H)-one]	> 10 µM
CCN1CCC[C@@H]2c3nc4ccccc4c(=O)n3CC[C@H]21 (racemic) [trans-5z, (±)-(4aR,13bS)-4-ethyl-1,2,3,4,4a,5,6,13b-octahydro-8H-[1,6]naphthyridino[5,6-b]quinazolin-8-one]	> 10 µM
O=c1c2cc(Cl)ccc2nc2n1CC[C@H]1NCCC[C@H]21 (racemic) [trans-6a, (±)-(4aR,13bS)-10-chloro-1,2,3,4,4a,5,6,13b-octahydro-8H-[1,6]naphthyridino[5,6-b]quinazolin-8-one]	1 to 10 µM
O=c1c2cc(Cl)c(Cl)cc2nc2n1CC[C@H]1NCCC[C@H]21 (racemic) [trans-6b, (±)-(4aR,13bS)-10,11-dichloro-1,2,3,4,4a,5,6,13b-octahydro-8H-[1,6]naphthyridino[5,6-b]quinazolin-8-one]	1 to 10 µM
COc1cc2nc3n(c(=O)c2cc1Cl)CC[C@H]1NCCC[C@H]31 (racemic) [trans-6c, (±)-(4aR,13bS)-10-chloro-11-methoxy-1,2,3,4,4a,5,6,13b-octahydro-8H-[1,6]naphthyridino[5,6-b]quinazolin-8-one]	1 to 10 µM
CC(C)N1CCC[C@@H]2c3nc4cc(Cl)c(Cl)cc4c(=O)n3CC[C@H]21 (racemic) [trans-7a, (±)-(4aR,13bS)-10,11-dichloro-4-isopropyl-1,2,3,4,4a,5,6,13b-octahydro-8H-[1,6]naphthyridino[5,6-b]quinazolin-8-one]	0.0001 to 0.1 µM
CC(C)NCCN1CCC[C@@H]2c3nc4cc(Cl)c(Cl)cc4c(=O)n3CC[C@H]21 (racemic) [trans-7aa, (±)-(4aR,13bS)-10,11-dichloro-4-(2-(isopropylamino)ethyl)-1,2,3,4,4a,5,6,13b-octahydro-8H-[1,6]naphthyridino[5,6-b]quinazolin-8-one]	0.1 to 1 µM
O=c1c2cc(Cl)c(Cl)cc2nc2n1CC[C@@H]1[C@@H]2CCCN1CC1CCOCC1 (racemic) [trans-7b, (±)-(4aR,13bS)-10,11-dichloro-4-((tetrahydro-2H-pyran-4-yl)methyl)-1,2,3,4,4a,5,6,13b-octahydro-8H-[1,6]naphthyridino[5,6-b]quinazolin-8-one]	0.0001 to 0.1 µM
O=c1c2cc(Cl)c(Cl)cc2nc2n1CC[C@@H]1[C@@H]2CCCN1Cc1cccnc1 (racemic) [trans-7bb, (±)-(4aR,13bS)-10,11-dichloro-4-(pyridin-3-ylmethyl)-1,2,3,4,4a,5,6,13b-octahydro-8H-[1,6]naphthyridino[5,6-b]quinazolin-8-one]	0.0001 to 0.1 µM
CN(C)C(=O)CN1CCC[C@@H]2c3nc4cc(Cl)c(Cl)cc4c(=O)n3CC[C@H]21 (racemic) [trans-7c, (±)-2-((4aR,13bS)-10,11-dichloro-8-oxo-2,3,5,6,8,13b-hexahydro-1H-[1,6]naphthyridino[5,6-b]quinazolin-4(4aH)-yl)-N,N-dimethylacetamide]	0.1 to 1 µM
